Assay results: patent US20090209457A1, “TREATMENT OF ANTI-ERYTHROPOIETIN ANTIBODY-MEDIATED DISORDERS WITH SYNTHETIC PEPTIDE-BASED EPO RECEPTOR AGONISTS” (Affymax, Inc., priority 2008, published 2009)
Bridge positions count the residues as written; N and C are the ends. Square brackets hold non-standard residues; d marks the D form. Ends that are not written are not given here. 1Nal = N[C@@H](Cc1cccc2ccccc12)C(=O)O; Sar = CNCC(=O)O

Legend:
[1] = in vivo; cited from earlier work
[2] = system: human, bone marrow derived CD34+ cells; test: C/BFU-e assay (erythroid colonies); format: cell-based; conditions: Table 6, 14 days
Method: EPO-R signaling stimulates the differentiation of bone marrow stem cells into proliferating red blood cell precursors. This assay measures the ability of test peptides to stimulate the proliferation and differentiation of red blood cell precursors from primary human bone marrow pluripotent stem cells.
For this assay, serial dilutions of test peptide are made in IMDM medium (Gibco) supplemented with 10% FBS (Hyclone). These serial dilutions, or positive control EPO peptide, are then added to methylcellulose to give a final volume of 1.5 mL. The methylcellulose and peptide mixture is then vortexed thoroughly. Aliquots (100,000 cells/mL) of human, bone marrow derived CD34+ cells (Poietics/Cambrex) are thawed. The thawed cells are gently added to 0.1 mL of 1 mg/ml DNAse (Stem Cells) in a 50 mL tube. Next, 40-50 mL IMDM medium is added gently to cells: the medium is added drop by drop along the side of the 50 mL tube for the first 10 mL, and then the remaining volume of medium is slowly dispensed along the side of the tube. The cells are then spun at 900 rpm for 20 min, and the media removed carefully by gentle aspiration. The cells are resuspended in 1 ml of IMDM medium and the cell density per mL is counted on hemacytometer slide (10 μL aliquot of cell suspension on slide, and cell density is the average count×10,000 cells/ml). The cells are then diluted in IMDM medium to a cell density of 15,000 cells/mL. A 100 μL of diluted cells is then added to each 1.5 mL methyl cellulose plus peptide sample (final cell concentration in assay media is 1000 cells/mL), and the mixture is vortexed. Allow the bubbles in the mixture to disappear, and then aspirate 1 mL using blunt-end needle. Add 0.25 mL aspirated mixture from each sample into each of 4 wells of a 24-well plate (Falcon brand). Incubate the plated mixtures at 37° C. under 5% CO2 in a humid incubator for 14 days. Score for the presence of erythroid colonies using a phase microscope (5×-10× objective, final magnification of 100×). The concentration of test peptide at which the number of formed colonies is 90% of maximum, relative to that observed with the EPO positive control, is recorded as the EC90 [See Table 2: C/BFU-e EC90].
For this assay, serial dilutions of test peptide are made in IMDM medium (Gibco) supplemented with 10% FBS (Hyclone). These serial dilutions, or positive control EPO peptide, are then added to methylcellulose to give a final volume of 1.5mL. The methylcellulose and peptide mixture is then vortexed thoroughly. […] The cells are resuspended in 1 ml of IMDM medium and the cell density per mL is counted on hemacytometer slide (10 μL aliquot of cell suspension on slide, and cell density is the average count×10,000 cells/ml). […]

[3] = system: bone marrow cultures established from healthy human donors; test: Bone marrow cultures with patient serum (erythroid colonies); format: cell-based
Method: The anti-Peptide I antibody assay was performed in the laboratories of the Sponsor using an ELISA method, with a sensitivity of 300 ng/mL [Fan Q., et al. (2006) Exp. Hematol. 34: 1303-11; Woodburn K W, et al. (2007) Exp. Hematol. 35: 1201-8]. Anti-EPO antibodies were measured by radioimmune precipitation assay. To confirm that the patient's antibodies were not cross-reactive with Peptide I, serum from three patients was tested in bone marrow cultures (established from healthy human donors, as previously described [Verhelst D, et al. (2004) Lancet 363: 1768-71]). Culture conditions included 20% of either fetal calf serum as a control or one of the study patient's serum. Cultures included either 1 IU/mL of recombinant human EPO or 0.55 μg/mL of Peptide I (a concentration previously shown to be equivalent to 1 IU/mL of EPO for erythroid growth). Erythroid colonies were counted on day 7.

In the case of “PEGylated homodimer of peptide monomers (AcG)GLYACHMGPIT(1-nal)VCQPLR(MeG)K (SEQ ID NO: 2), EPO-R agonist (Ac-GGLYACHMGPIT[1Nal]VCQPLR[Sar]K; disulfide 6-15 (inferred); not fully specified (residue 21); printed as (AcG)GLYACHMGPIT(1-nal)VCQPLR(MeG)K; also: PEGylated) [Peptide I]”, the clearance times [1] is given as “slow”, the half-life [1] is given as “prolonged” and the EC90 [2] is given as 3 nM. For the same substance, the “erythroid growth in presence of patient serum” value ([3]; 20% serum of three patients, 1 IU/mL EPO or 0.55 μg/mL Peptide I, colonies counted day 7) was “erythroid differentiation was observed” and the “concentration equivalent to 1 IU/mL of EPO for erythroid growth” value ([3]; previously shown) was 0.55 µg/mL.
